Measured values: patent US20250134907A1, “FUSED DIAZEPINES AS AGONISTS OF THE INSULIN-LIKE 3 (INSL3) PEPTIDE RECEPTOR RXFP2 AND METHODS OF USE THEREOF” (The United States of America,as represented by the …, priority 2022, published 2025)
Read-outs that look alike come from different tables or passages of the source.

Key:
[1] = Pharmacokinetic study in female mice (plasma, liver, bone); assay type: in vivo, female C57/BL6 mice
Excerpt: FIG. 24A depicts the plasma profile. FIG. 24B depicts the liver profile and FIG. 24C depicts the bone profiles. The actual concentration (ng/g) is the detected value (ng/mL) multiplied by 4. […] 40% HP-b-CD-75% PEG300. Three mice were used per time point. Results are expressed as the mean SEM.
2-hydroxypropyl-beta-cyclodextrin (HPBCD).
FIG. 24A depicts the plasma profile. FIG. 24B depicts the liver profile and FIG. 24C depicts the bone profiles. The actual concentration (ng/g) is the detected value (ng/mL) multiplied by 4. […] 40% HP-b-CD-75% PEG300. Three mice were used per time point. Results are expressed as the mean±SEM.

[2] = system: gubernaculum of female embryos; experiment: Gubernaculum development in female embryos of treated pregnant mice; assay type: in vivo, C57BL/6J mice; conditions: 30 mg/kg intraperitoneal to pregnant females, embryonic day 12.5 to 17.5
Excerpt: The role of INSL3 and RXFP2 in gubernaculum development for the initial transabdominal descent of the testis during embryogenesis has been widely characterized in Insl3^-/- and Rxfp2^-/- mouse models of cryptorchidism. […] The gubernaculum is composed of the gubernacular bulb and cord, and it has begun invagination into the abdominal wall in preparation for the inguinoscrotal stage of testicular descent, which will finalize after birth. […] The hypothesis for our experiment is that by injecting pregnant females with the RXFP2 agonists during this embryonic development window, gubemaculum development could be induced in female embryos, which has been previously shown in female embryos overexpressing INSL3. […] For this assay, whole embryos were fixed in 10% formaldehyde for 24 hours. Afterwards, embryos were washed twice with PBS for 1 hour, followed by 3 consecutive washes with increasing concentrations of ethanol (30%, 50% and 70%) for 30 minutes. Fixed embryos were prepared for histology using an automatic tissue processor (Leica TP1020, Leica Biosystems, Germany), embedded in paraffin wax, and 5-7 μm sagittal serial sections were cut using an automated rotary microtome (Leica RM2255, Leica Biosystems, Germany). […] At least 4 embryos were analyzed per treatment group.

[3] = bone, PO 10 mg/kg, one administration
[4] = liver, PO 10 mg/kg, one administration
[5] = plasma, PO 10 mg/kg, one administration

With `O=C1Nc2ccc(-c3cc(C(F)(F)F)cc(C(F)(F)F)c3)cc2C(=O)N2CCN(C(=O)COc3ccc(OC(F)(F)F)cc3I)C[C@@H]12` [Example 187, (S)-8-(3,5-bis(trifluoromethyl)phenyl)-2-(2-(2-iodo-4-(trifluoromethoxy)phenoxy)acetyl)-1,3,4,12a-tetrahydrobenzo[e]pyrazino[1,2-a][1,4]diazepine-6,12 (2H, 11H)-dione] the Maximum serum concentration ([1]; Table 10, IV 3 mg/kg) was 3.25 µg/mL, the AUCInf ([1]; bone, IV 3 mg/kg) was 3687 ng·h/g and the AUClast ([1]; bone, IV 3 mg/kg) was 3650 ng·h/g. It also gave an AUCInf [1, 3] of 2190 ng·h/g, an AUClast [1, 3] of 1897 ng·h/g and an AUCInf ([1]; bone, PO (QD*3) 10 mg/kg) of 2573 ng·h/g. For the same compound, the AUClast ([1]; bone, PO (QD*3) 10 mg/kg) was 2539 ng·h/g, the Cmax ([1]; female, C57/BL6, mouse, bone, iv, 3 mg/kg, IV 3 mg/kg) was 1070 ng/g and the Cmax ([1]; female, C57/BL6, mouse, bone, po, 10 mg/kg, PO 10 mg/kg, one administration) was 174 ng/g. The Cmax ([1]; female, C57/BL6, mouse, bone, po, 10 mg/kg, PO (QD*3) 10 mg/kg) was 298 ng/g, the Kp ([1]; female, C57/BL6, mouse, bone/plasma, iv, 3 mg/kg, IV 3 mg/kg, read-out: AUClast Ratio (Bone/Plasma)) was 1.14 and the Kp ([1]; female, C57/BL6, mouse, bone/plasma, iv, 3 mg/kg, IV 3 mg/kg, read-out: Cmax Ratio (Bone/Plasma)) was 0.419. For the same compound, the Kp ([1]; female, C57/BL6, mouse, bone/plasma, po, 10 mg/kg, PO 10 mg/kg, one administration, read-out: AUClast Ratio (Bone/Plasma)) was 0.725, the Kp ([1]; female, C57/BL6, mouse, bone/plasma, po, 10 mg/kg, PO 10 mg/kg, one administration, read-out: Cmax Ratio (Bone/Plasma)) was 0.475 and the Kp ([1]; female, C57/BL6, mouse, bone/plasma, po, 10 mg/kg, PO (QD*3) 10 mg/kg, read-out: AUClast Ratio (Bone/Plasma)) was 0.779. The Kp ([1]; female, C57/BL6, mouse, bone/plasma, po, 10 mg/kg, PO (QD*3) 10 mg/kg, read-out: Cmax Ratio (Bone/Plasma)) was 0.766, the Cmax ([1]; female, C57/BL6, mouse, liver, iv, 3 mg/kg, IV 3 mg/kg) was 28000 ng/g and the Cmax ([1]; female, C57/BL6, mouse, liver, po, 10 mg/kg, PO 10 mg/kg, one administration) was 3210 ng/g. It also gave a Cmax ([1]; female, C57/BL6, mouse, liver, po, 10 mg/kg, PO (QD*3) 10 mg/kg) of 3570 ng/g, a Kp ([1]; female, C57/BL6, mouse, liver/plasma, iv, 3 mg/kg, IV 3 mg/kg, read-out: AUClast Ratio (Liver/Plasma)) of 8.3 and a Kp ([1]; female, C57/BL6, mouse, liver/plasma, iv, 3 mg/kg, IV 3 mg/kg, read-out: Cmax Ratio (Liver/Plasma)) of 10.9. The Kp ([1]; female, C57/BL6, mouse, liver/plasma, po, 10 mg/kg, PO 10 mg/kg, one administration, read-out: AUClast Ratio (Liver/Plasma)) was 9.23, the Kp ([1]; female, C57/BL6, mouse, liver/plasma, po, 10 mg/kg, PO 10 mg/kg, one administration, read-out: Cmax Ratio (Liver/Plasma)) was 8.78 and the Kp ([1]; female, C57/BL6, mouse, liver/plasma, po, 10 mg/kg, PO (QD*3) 10 mg/kg, read-out: AUClast Ratio (Liver/Plasma)) was 7.64. For the same compound, the Kp ([1]; female, C57/BL6, mouse, liver/plasma, po, 10 mg/kg, PO (QD*3) 10 mg/kg, read-out: Cmax Ratio (Liver/Plasma)) was 9.18, the AUC(0-inf) ([1]; female, C57/BL6, mouse, plasma, iv, 3 mg/kg, Table 10, IV 3 mg/kg, read-out: Area under the curve-AUCinf) was 3200 ng·h/mL and the AUC(0-t) ([1]; female, C57/BL6, mouse, plasma, iv, 3 mg/kg, Table 10, IV 3 mg/kg, read-out: Area under the curve-AUClast) was 3190 ng·h/mL. It also gave a C0 ([1]; female, C57/BL6, mouse, plasma, iv, 3 mg/kg, Table 10, IV 3 mg/kg, read-out: Concentration-C0) of 3590 ng/mL, a half-life ([1]; female, C57/BL6, mouse, plasma, iv, 3 mg/kg, Table 10, IV 3 mg/kg, read-out: Half life-t1/2 (converted)) of 6.56 h and an AUC(0-inf) ([1]; female, C57/BL6, mouse, plasma, iv, 3 mg/kg, plasma, IV 3 mg/kg, read-out: AUCInf) of 3200 ng·h/mL. It also gave an AUC(0-t) ([1]; female, C57/BL6, mouse, plasma, iv, 3 mg/kg, plasma, IV 3 mg/kg, read-out: AUClast) of 3190 ng·h/mL, a C0 ([1]; female, C57/BL6, mouse, plasma, iv, 3 mg/kg, plasma, IV 3 mg/kg, read-out: C0) of 3590 ng/mL and a half-life ([1]; female, C57/BL6, mouse, plasma, iv, 3 mg/kg, plasma, IV 3 mg/kg, read-out: t1/2 (converted)) of 6.56 h. For the same compound, the AUC(0-inf) ([1]; female, C57/BL6, mouse, plasma, po, 10 mg/kg, Table 10, POA single 10 mg/kg, read-out: Area under the curve-AUCinf) was 2650 ng·h/mL, the AUC(0-t) ([1]; female, C57/BL6, mouse, plasma, po, 10 mg/kg, Table 10, POA single 10 mg/kg, read-out: Area under the curve-AUClast) was 2620 ng·h/mL and the half-life ([1]; female, C57/BL6, mouse, plasma, po, 10 mg/kg, Table 10, POA single 10 mg/kg, read-out: Half life-t1/2 (converted)) was 3.89 h. It also gave an AUC(0-inf) ([1]; female, C57/BL6, mouse, plasma, po, 10 mg/kg, Table 10, POB QD × 3, 10 mg/kg, read-out: Area under the curve-AUCinf) of 3270 ng·h/mL, an AUC(0-t) ([1]; female, C57/BL6, mouse, plasma, po, 10 mg/kg, Table 10, POB QD × 3, 10 mg/kg, read-out: Area under the curve-AUClast) of 3260 ng·h/mL and a half-life ([1]; female, C57/BL6, mouse, plasma, po, 10 mg/kg, Table 10, POB QD × 3, 10 mg/kg, read-out: Half life-t1/2 (converted)) of 5.88 h. The AUC(0-inf) ([1]; female, C57/BL6, mouse, plasma, po, 10 mg/kg, plasma, PO 10 mg/kg, one administration, read-out: AUCInf) was 2650 ng·h/mL, the AUC(0-t) ([1]; female, C57/BL6, mouse, plasma, po, 10 mg/kg, plasma, PO 10 mg/kg, one administration, read-out: AUClast) was 2620 ng·h/mL and the C0 ([1]; female, C57/BL6, mouse, plasma, po, 10 mg/kg, plasma, PO 10 mg/kg, one administration, read-out: C0) was 366 ng/mL. The half-life ([1]; female, C57/BL6, mouse, plasma, po, 10 mg/kg, plasma, PO 10 mg/kg, one administration, read-out: t1/2 (converted)) was 3.89 h, the AUC(0-inf) ([1]; female, C57/BL6, mouse, plasma, po, 10 mg/kg, plasma, PO (QD*3) 10 mg/kg, read-out: AUCInf) was 3270 ng·h/mL and the AUC(0-t) ([1]; female, C57/BL6, mouse, plasma, po, 10 mg/kg, plasma, PO (QD*3) 10 mg/kg, read-out: AUClast) was 3260 ng·h/mL. For the same compound, the C0 ([1]; female, C57/BL6, mouse, plasma, po, 10 mg/kg, plasma, PO (QD*3) 10 mg/kg, read-out: C0) was 389 ng/mL, the half-life ([1]; female, C57/BL6, mouse, plasma, po, 10 mg/kg, plasma, PO (QD*3) 10 mg/kg, read-out: t1/2 (converted)) was 5.88 h and the bioavailability ([1]; female, C57/BL6, mouse, plasma, po, Table 10, POA single 10 mg/kg, read-out: Bioavailability-F) was 24.8%. It also gave an MRT last ([1]; female, C57/BL6, mouse, plasma, Table 10, IV 3 mg/kg, read-out: Mean residence time-MRTlast) of 3.47 h, a clearance ([1]; female, C57/BL6, mouse, plasma, Table 10, IV 3 mg/kg, read-out: Total clearance after IV administration-CLobs) of 15.6 mL/min/kg and a Vd ([1]; female, C57/BL6, mouse, plasma, Table 10, IV 3 mg/kg, read-out: Volume of distribution in steady state-VSSobs) of 3.38 L/kg. The Tmax ([1]; female, C57/BL6, mouse, bone, IV 3 mg/kg) was 0.083 h, the Tmax ([1]; female, C57/BL6, mouse, bone, PO 10 mg/kg, one administration) was 3 h and the Tmax ([1]; female, C57/BL6, mouse, liver, IV 3 mg/kg) was 0.083 h. It also gave a Tmax ([1]; female, C57/BL6, mouse, liver, PO 10 mg/kg, one administration) of 1 h, an MRT ([1]; female, C57/BL6, mouse, plasma, IV 3 mg/kg) of 3.47 h and a Tmax ([1]; female, C57/BL6, mouse, plasma, PO 10 mg/kg, one administration) of 1 h. For the same compound, the AUCInf ([1]; liver, IV 3 mg/kg) was 26524 ng·h/g, the AUClast ([1]; liver, IV 3 mg/kg) was 26492 ng·h/g and the AUCInf [1, 4] was 24170 ng·h/g. It also gave an AUClast [1, 4] of 24146 ng·h/g, an AUCInf ([1]; liver, PO (QD*3) 10 mg/kg) of 24965 ng·h/g and an AUClast ([1]; liver, PO (QD*3) 10 mg/kg) of 24927 ng·h/g. The AUC_%Extrap ([1]; plasma, IV 3 mg/kg) was 0.258%, the Cl_obs ([1]; plasma, IV 3 mg/kg) was 15.6 mL/min/kg and the Vss_obs ([1]; plasma, IV 3 mg/kg) was 3.38 L/kg. The AUC_%Extrap [1, 5] was 1.20%, the F [1, 5] was 24.8% and the AUC_%Extrap ([1]; plasma, PO (QD*3) 10 mg/kg) was 0.265%. For the same compound, the “gubernaculum morphology in embryonic day 18.5 female embryos” value [2] was “male-like invagination of the gubemaculum”.
